Key:
[1] = target: T1, presenilin 1 (Mus musculus, UniProt P49769); experiment: In vivo brain PS1 levels in mice after compound A, western blot; design: species or system C57BL6 mice; settings: 30 mg/kg oral once daily 4 days
T1 construct: brain levels of mature PS1 remain elevated for well after compound A and α-CTFs have returned to baseline levels; The mature form of presenlin is a heterodimer consisting of a ˜30 kDa NH2-terminal fragment (NTF) and a ˜20 kDa C-terminal fragment; from tissue; host or cells: brain membrane fraction of C57BL6 mice
Experimental: (§1) Mice were treated via gavage once daily for […] with 30 mg/Kg of compound A and then necropsied 0-48 hours after the final dose was administered.
(§2) C57BL6 mice were treated by oral gavage of 30 mg/kg compound A (0.5% methylcellulose carrier) once a day for 4 consecutive days. After the final dose, nine groups of animals (5 animals per group) were sacrificed at different time points ranging from 15 min. post final dose up to 48 hours post final dose (plus an untreated group). Blood was collected and mouse brain samples were minced and homogenized in water using a FastPrep homogenizer (Thermo Scientific). Plasma and brain homogenates were extracted with acetonitrile for measurement of compound A concentrations by LCMS. For biochemical analysis, brains were homogenized (250 mM sucrose, 50 mM Tris, pH 7.5, 1 mM EDTA plus protease inhibitors) and separated into a membrane fraction and soluble fraction by ultracentrifugation at 100,000 g for 1 hr. The membrane fraction was solubilized in RIPA buffer (1% TX100, 0.5% Taurodexoycholate, 0.1% SDS in TBS+PI) and clarified by centrifugation. Total protein was measured by BCA (Pierce) and 30 ug of each sample was separated by SDS/PAGE and analyzed by Western blot. The following antibodies were used: PS1 ( 1/1000 Abcam no. Ab10281); calnexin ( 1/1000 Abcam no. Ab10286) and APP-CTF ( 1/1000 Anaspec 54096). Western blots were developed using an alkaline phosphatase anti-rabbit secondary and an alkaline phosphatase chemiluminescent substrate. Chemiluminescence data was imaged using an Alpha Innotech FluorChem Q imager and band quantification was carried out using densitometry software AlphaViewQ (Alpha Innotech). […] Abeta40 was quantified from diethylamine extracts using BetaMark Abeta40 ELISA kit (Covance); Abeta42 was quantified from diethylamine extracts using the High Sensitivity Abeta42 ELISA kit (Wako).

[2] = test system: γ-secretase; experiment: In vivo brain α-CTF, Aβ40 and Aβ42 levels in mice after compound A; design: species or system C57BL6 mice
Experimental: as §1, §2

[3] = Brain concentration of compound A by LCMS; assay type: in vivo; settings: C57BL6, mouse, oral, 30 mg/kg, mice, read-out: brain t1/2 (converted)
Experimental: as §2, with “The membrane fraction was solubilized in RIPA buffer (1% TX100, 0.5% Taurodexoycholate, 0.1% SDS in TBS+PI) and clarified by centrifugation.” left out, “The following antibodies were used: PS1 ( 1/1000 Abcam no. Ab10281); calnexin ( 1/1000 Abcam no. Ab10286) and APP-CTF ( 1/1000 Anaspec 54096). Western blots were developed using an alkaline phosphatase anti-rabbit secondary and an alkaline phosphatase chemiluminescent substrate.” left out

[4] = target: γ-secretase (Homo sapiens, UniProt P49768); experiment: γ-secretase inhibitory IC50 of compound A; settings: γ-secretase inhibition, compared with brain levels

C[C@H](OC(=O)NCC(F)(F)C(F)(F)F)C(=O)N[C@@H]1C(=O)N(C)c2ccccc2-c2ccccc21 [Compound A, (S)-1-(((S)-5-methyl-6-oxo-6,7-dihydro-5H-dibenzo[b,d]azepin-7-yl)amino)-1-oxopropan-2-yl (2,2,3,3,3-pentafluoropropyl)carbamate]
brain presenilin levels above untreated levels ([1]; at 24 hours): 50%
increase of brain presenilin levels ([1]; within 1 hour of washout): 50%
maximum increase of brain presenilin levels ([1]; within 8 hours of washout): 2 fold
reduction of brain Aβ42 levels relative to untreated controls ([2]; 30 mg/kg oral once daily 4 days, 48 hrs after the final dose): 40%
Aβ42/Aβ40 ratio in brain ([2]; 30 mg/kg oral once daily 4 days, washout): reduced
time after final dose at which CTF levels begin to drop ([2]; 30 mg/kg oral, brain α-CTFs): 2 h
half-life [3]: ~3.5 h
IC50 [4]: ~60 nM
